The results in this text go back to patent publication US20250250302A1, “SYNTHESIS OF SELF-ASSEMBLING ARTIFICIAL PROTEINS UTILIZING A HOST-GUEST SYSTEM AND USES THEREOF” (Indian Institute of Science Education and Research, Pune …, priority 2024, published 2025).

The structures appear in SMILES notation.

The nature of the series: solubility test of α, β, and γcyclodextrin in water. The following applies: compared with β cyclodextrin.

Consider `OC[C@H]1O[C@@H]2O[C@H]3[C@H](O)[C@@H](O)[C@@H](O[C@H]4[C@H](O)[C@@H](O)[C@@H](O[C@H]5[C@H](O)[C@@H](O)[C@@H](O[C@H]6[C@H](O)[C@@H](O)[C@@H](O[C@H]7[C@H](O)[C@@H](O)[C@@H](O[C@H]1[C@H](O)[C@H]2O)O[C@@H]7CO)O[C@@H]6CO)O[C@@H]5CO)O[C@@H]4CO)O[C@@H]3CO` [a], for which the solubility in water entry is “better solubility in water compared to β cyclodextrin”.
